This is an account of results in US20250059499A1, “CELL-SURFACE ENGINEERING COMPOSITIONS AND METHODS FOR THE PREVENTION OF IMMUNE REJECTION” (THE UNIVERSITY OF BRITISH COLUMBIA, priority 2021, published 2025).

Series [1] deals with Ea.hy926 cells. The series can be described thus: Ammonia generation assay for gtTGase ligation on endothelial cells. It is filed as cell-based. The note with it: 4° C.; for NH3 production with TGase isoforms: gtTGase and mTGase, 30 minutes. The procedure: (§1) The solutions were mixed thoroughly and incubated at 4° C. for 30 minutes under static conditions. The cell supernatant was collected and the cells were washed three times with PBS and subjected to further analysis. The assessment of polymer attachment to endothelial cells are assessed by ammonia assay.
The extent of gtTGase ligation was assessed using an ammonia assay kit (Sigma™, MAK310) and used according to the manufacturer's protocols. This kit is used for the quantitative determination of ammonia (NH3), a side product in the gtTGase reaction.^6 This assay is based on the o-phthalaldehyde method in which the reagent reacts with NH3 producing a fluorescent product (λex=360 nm/λm=450 nm), proportional to the NH3 concentration in the sample.^7,8 Briefly, PBS was supplemented with 5 mM CaCl2 and 3 mM dithiothreitol (DTT). In a 96 well plate, containing either endothelial cells or glycine ethyl ether (GEE, amine donor), Q-tagged polymer (acyl donor) and guinea pig liver transglutaminase (gtTGase, Sigma™ T5398) were added to the PBS solution to a final concentration of 5 mM, 0.5 mM and 0.2 U/mL respectively (Vf=100 μL). The reaction was thoroughly mixed and rocked gently at 4° C. for 30 minutes. The sample was diluted four-fold and a 10 μL aliquot of the reaction mixture was then transferred to a tube containing 90 μL complete ammonia assay reagent and mixed thoroughly. The solution was left to react for 15 minutes at ambient temperature in the dark. The fluorescence intensity was measured at λex=360 nm/λem=450 nm using a spectrophotometer and the quantity of ammonia in solution was calculated according to Eq. 1: […]
EA.hy 926 cells plated for 15 days were washed twice with warm PBS before introducing a reaction cocktail containing 0.5 mM polymer, 5 mM CaCl2, 3 mM DTT and 0.2 U/mL transglutaminase made in DMEM media solution without phenol red. The reaction was incubated at 4° C. for 30 minutes. Then the supernatant was removed and subjected to ammonia generation assay and the cells were washed twice with warm PBS to remove unreacted polymers.

Another series has as its system HMEC-1 cell monolayers. The series can be described thus: Transendothelial protein passage (FITC-labelled BSA). It counts as cell-based. The conditions noted are these: TNF-α 2000 U/mL, 3 hours; 0.5 mM polymer.
Series [2] concerns IL-2 activated PBMCs on TNF-α activated Ea.hy926 monolayers. In words: PBMC adhesion to endothelial surfaces. It counts as cell-based, human. The procedure:
Confluent Ea.hy926 monolayers seeded in a 48 well plate (30,000 cells/well) were activated with TNF-α (2000 U/mL, 3 hours). To obtain PBMCs, EDTA anticoagulated blood from healthy donors was subjected to ficoll density gradient centrifugation Histopaque™-1077 (Sigma Aldrich™). PBMCs were cultured for 24 h in RPMI-1640 containing 10% FBS (v/v), 1000 U/mL recombinant human IL-2 (Cedarlane™)^11 and 1% P/S. Prior to fluorescent labelling, cultured PBMCs were tested for absence of platelets by labelling an aliquot of cells with FITC-labelled anti-human […] (1:200 Beckman Coulter™) and analyzed by flow cytometry (CytoFLEX™, Beckman Coulter™). PBMCs containing <1% platelets were implemented for further study. The PBMC composition was also measured using a hematological analyzer (XN-550™ automated hematology analyzer, Sysmex Canada Inc.™). Following IL-2 treatment the typical composition of the PBMCs were ˜80% lymphocytes, 5% immature granulocytes, 2% basophils and 13% monocytes. […] PMBC adhesion was quantified by lysing the cells with RIPA buffer, spinning at 15,000 g to remove cell debris and measuring the fluorescent intensity of the CMFDA Dye in the lysate (λex/λem=492/517 nm using a plate reader (Spectramax3™, Molecular Devices™).

Series [3] concerns Ea.hy926 cells. In words: Cell viability (MTS assay) of modified cells. It is filed as cell-based. On the procedure:
(§2) Cell viability measurements were performed on modified cells after washing with warm PBS twice. Then, the cells were subjected to MTS (3-(4,5-dimethylthiazol-2-yl)-5-(3-carboxymethoxyphenyl)-2-(4-sulfophenyl)-2H-tetrazolium) assay kit (Cell Titer 96 Aqueous One solution Cell Proliferation Assay™) and by following the manufacturer's protocol. All recorded values were normalized to healthy cells untreated with polymers. Platelet activation was performed by PE-labelled anti human […] stain was prepared by diluting 20 times using plasma. An aliquot of each platelet sample was labelled using the diluted PE-labelled anti-human […] solution (1:10 dilution) for 30 minutes at room temperature. Platelets incubated in 0.1 mM TRAP were used as positive control and platelets incubated in PE-labelled IgG were used for non-specific binding control. Each sample was analyzed for 10000 platelet events. Each experiment was replicated using a minimum of 3 donors and each donor was performed in triplicates. For human pancreatic islets, live/dead imaging assay was used for cell viability and DTZ detection assay was used to determine insulin-producing beta cells from mixed cell cultures.

Another series concerns EA.hy 926 monolayers. The series can be described thus: PMS-induced glycocalyx shedding (WGA stain, flow cytometry). The conditions noted are these: compared to non-sulfated counterparts. It counts as cell-based. The procedure: EA.hy 926 cells were grown to confluency. Media was replaced, washed with DPBS and incubated with […] NADH, […] PMS (unless otherwise noted) and the indicated concentration of polymer; with PMS being last to be added. […] The cells were then washed extensively, stained using WGA ([…]) for 15 minutes and harvested to be analyzed using flow cytometry. Neuraminidase enzyme was used as a positive control to shed the glycocalyx.

Series [4] has as its system BALB/c aortic allograft in C57/BL/6 recipient. In words: Serum cytokine array after aortic interposition grafting. It counts as in vivo, mouse. The conditions noted are these: 2 days and 15 days post-transplant, 0.5 mM LPGS-Q. On the procedure:
To assess the immune modulatory effect of enzymatic polymer grafting, an antibody array kit based on a sandwich ELISA principle (Proteome Profiler™, Panel A; R&D Systems™) was used to screen the cytokine and chemokine expression level in sera of animals according to the manufacturer's protocol. Relative expression of 40 murine cytokines and chemokines captured by corresponding antibodies spotted on a nitro-cellulose membrane was determined.
The antibodies for the following cytokines were spotted on the membrane: BLC, C5a, G-CSF, GM-CSF, I-309, Eotaxin, sICAM-1, IFN-g, IL-1a, IL-1b, IL-1ra, IL-2, IL-3, IL-4, IL-5, IL-6, IL-7, IL-10, IL-13, IL-12 p70, IL-16, IL-17 IL-23, IL-27, CXCL10 (IP-10), I-TAC, KC, M-CSF, CCL2 (MCP-1), CCL12 (MCP-5), MIG, CCL3 (MIP-1a), CCL4 (MIP-1b), CXCL2 (MIP-2), CCL5 (RANTES), SDF-1, TARC, TIMP-1, TNF-α, TREM-1. […] Following the blocking step for 1 h at 4° C., a mixture of detection antibody cocktail and 100 μL of serum sample was incubated overnight at 4° C. with the membrane. Captured proteins were labeled with a streptavidin-functionalized IR-Dye (IRDye 680RD Streptavidin; LI-COR) (1:20,000 dilution in 10% bovine serum albumin, 30 min at RT) and scanned using a LI-COR Odyssey Infrared Imaging System™. The software ImageJ™ (Version 1.52s) was used to determine the integrated density of the spots on the array images after background subtraction. […]

A further series deals with platelets. The series can be described thus: Platelet activation (CD62, flow cytometry). It is filed as cell-based, human. The conditions noted are these: 4° C. On the procedure: as §1
as §2, with “For human pancreatic islets, live/dead imaging assay was used for cell viability and DTZ detection assay was used to determine insulin-producing beta cells from mixed cell cultures.” left out
For orientation: Flow cytometry measures light scatter and fluorescence of single cells or particles in a stream.

Another series relates to human pancreatic islets. The series can be described thus: Compatibility of cell surface engineering on pancreatic islets (LIVE/DEAD, DTZ). It is filed as cell-based. The note with it: 0.5 mM polymer, room temperature, 30 minutes. On the procedure: FIG. 57: Compatibility of cell surface engineering on human pancreatic islet surfaces using gtTGase. Human pancreatic islets were incubated with 0.5 mM Q-tagged polymer, 0.2 U ml-1 gtTGase, 3 mM GSH and 5 mM CaCl2 at room temperature for 30 minutes. Cell viability was assessed using a LIVE/DEAD stain assay and insulin producing activity was assessed by DTZ detection assay.
as §2, with “For human pancreatic islets, live/dead imaging assay was used for cell viability and DTZ detection assay was used to determine insulin-producing beta cells from mixed cell cultures.” left out

Series [5] deals with TNF-α activated Ea.hy926 cells co-cultured with IL-2 activated PBMCs. In words: PBMC-mediated cytotoxicity (LDH assay). The note with it: polymer ligated to cell surface.
Procedure: EA.hy 926 monolayers were activated using TNF-α and PBMCs were activated using IL-2 as described in PBMC adhesion experiments. Following activation, PBMC was collected and resuspended in DMEM (Phenol free, 5% FBS, pen/strep). PBMCs were then added to activated EA.hy 926 monolayers (modified and unmodified) to a final concentration of 0.15×10^6 cells/mL and left to incubate at 37° C. and 5% CO2 for 18 hour. After treatment, the supernatant was collected and cell debris was removed through centrifugation. LDH content was measured using LDC cytotoxicity assay (Biovision Inc.™). Cytotoxicity was calculated using the equation below;
where, LDHsample is the amount of LDH released from the sample, LDHPBMC is the amount of LDH released from PBMC samples not subjected to EA.hy 926 monolayers, LDHalive is the amount of LDH released from EA.hy 926 monolayers not subjected to PBMCs, and LDHdead is the amount of LDH released of EA.hy926 monolayers treated with RIPA buffer for 10 minutes at room temperature.

No end group written: not given here.

Regarding “Linear polyglycerol sulfate glutamine [LPGS-Q]”, in the series with Ea.hy926 cells [1] (0.5 mM polymer, gtTGase, 30 min), the “NH3 production (surface ligation efficiency)” value is recorded as “higher ammonia production than its non-sulfated counterparts”. The “permeability of the monolayer after TNF-α activation” value in the series on HMEC-1 cell monolayers is “reduce non-specific macromolecule passage”. Moreover, in series [2], the “PBMC adhesion, in words” value is “evading recognition and subsequent adhesion”. In addition, the “cell metabolic activity after bioconjugation” value in the series with Ea.hy926 cells [3] was “without affecting cell metabolic activity”. The “cell viability under oxidative stress” value in the series with Ea.hy926 cells [3] (cells grown 15 days, superoxide radicals) is recorded as “rescue of the cells viability”. The “retention of the glycocalyx structure after exposure to superoxide anions” value with EA.hy 926 monolayers is listed as “significantly larger retention of the glycocalyx structure”. In addition, the “cytokine profile of sera of recipient mice” value in series [4] is “beneficial anti-inflammatory properties post-transplantation”. In the series on platelets, the “platelet activation (CD62 surface markers)” value is recorded as “did not induce platelet activation”. For the same substance, the “cell viability and insulin producing activity” value in the series with human pancreatic islets is given as “still produce viable cells”. The “PBMC-mediated endothelial cell death, in words” value in series [5] is given as “reducing PBMC-mediated cytotoxicity”.

As to “WLAQRPH-PEG: Q-tagged PEG polymer used to compare TGase isoforms (also: conjugated to PEG, site not given here) [reference compound]”, the “NH3 production with TGase isoforms” value in the series with Ea.hy926 cells [1] is recorded as “favourable results”. In addition, the “cell viability with TGase isoforms” value in the series with Ea.hy926 cells [3] is “favourable results”.

Take “GQQQLGGGGG-PEG: Q-tagged PEG polymer used to compare TGase isoforms (also: conjugated to PEG, site not given here) [reference compound]”: in the series on Ea.hy926 cells [1], the “NH3 production with TGase isoforms” value is given as “favourable results”. Also, the “cell viability with TGase isoforms” value in the series with Ea.hy926 cells [3] was “favourable results”.
